The subject of one test is DIGSA. Put plainly: Postemergence foliar-applied, direct seeded rice weeds (Example I). The note with it: Compound A n-Butyl Ester 16 gae/ha. The class given is in vivo, Digitaria sanguinalis (L.) Scop. The text has this:
(§1) Seeds or nutlets of the desired test plant species were planted in a soil matrix prepared by mixing a loam or sandy loam soil (e.g., 28.6 percent silt, 18.8 percent clay, and 52.6 percent sand, with a pH of about 5.8 and an organic matter content of about 1.8 percent) and calcareous grit in an 80 to 20 ratio. The soil matrix was contained in plastic pots with a volume of 1 quart and a surface area of 83.6 cm^2. When required to ensure good germination and healthy plants, a fungicide treatment and/or other chemical or physical treatment was applied. The plants were grown for 8-22 days in a greenhouse with an approximate 14 h photoperiod which was maintained at about 29° C. during the day and 26° C. during the night. Nutrients (Peters Excel® 15-5-15 5-Ca 2-Mg and iron chelate) were applied in the irrigation solution as needed and water was added on a regular basis. Supplemental lighting was provided with overhead metal halide 1000-Watt lamps as necessary. The plants were employed for testing when they reached the first through fourth true leaf stage.
(§2) Treatments consisted of the acid or esters of 4-amino-3-chloro-5-fluoro-6-(4-chloro-2-fluoro-3-methoxy-phenyl)pyridine-2-carboxylic acid (Compound A), each formulated as an SC (suspension concentrate), and various herbicidal components alone and in combination. Forms of compound A were applied on an acid equivalent basis.
(§3) Other herbicidal components were applied on an acid equivalent basis and include acetolactate synthase (ALS)-inhibiting herbicides (imidazolinone chemical class) imazethapyr ammonium salt formulated as Newpath®, imazamox ammonium salt formulated as Beyond®, imazapic ammonium salt formulated as Plateau®, imazapyr isopropylamine salt formulated as Arsenal®, imazamethabenz-methyl (technical material) and imazaquin isopropylamine salt formulated as Scepter®/Imagine®.
(§4) Treatment requirements were calculated based upon the rates being tested, the concentration of active ingredient or acid equivalent in the formulation, and a 12 mL application volume at a rate of 187 L/ha.
For treatments comprised of formulated compounds, measured amounts of compounds were placed individually in 25 mL glass vials and diluted in a volume of 1.25% (v/v) Agri-Dex® crop oil concentrated to obtain 12× stock solutions. […]
(§5) For treatments comprised of formulated and technical compounds, weighed amounts of the technical materials were placed individually in 25 mL glass vials and dissolved in a volume of 97:3 v/v acetone/DMSO to obtain 12× stock solutions, and measured amounts of the formulated compounds were placed individually in 25 mL glass vials and diluted in a volume of 1.5% (v/v) crop oil concentrate or water to obtain 12× stock solutions. […]

For another test, the system named is IPOHE. Described as above. It is filed as in vivo, Ipomoea hederacea Jacq.
Source text: as §1, §2, §3, §4
(§6) For treatments comprised of formulated compounds, measured amounts of compounds were placed individually in 25 mL glass vials and diluted in a volume of 1.25% (v/v) Agri-Dex® crop oil concentrated to obtain 12× stock solutions. […] Application solutions were prepared by adding an appropriate amount of each stock solution (e.g., 1 mL) and diluted to the appropriate final concentrations with the addition of 10 mL of an aqueous mixture of 1.25% (v/v) crop oil concentrate so that the final spray solutions contained 1.25+/−0.05% (v/v) crop oil concentrate.
(§7) For treatments comprised of technical compounds, weighed amounts can be placed individually in 25 mL glass vials and dissolved in a volume of 97:3 v/v acetone/DMSO to obtain 12× stock solutions. […] Application solutions can be prepared by adding an appropriate amount of each stock solution (e.g., 1 mL) and diluted to the appropriate final concentrations with the addition of 10 mL of an aqueous mixture of 1.5% (v/v) crop oil concentrate so that the final spray solutions contain 1.25% (v/v) crop oil concentrate. When technical materials are used, the concentrated stock solutions can be added to the spray solutions so that the final acetone and DMSO concentrations of the application solutions are 16.2% and 0.5%, respectively.
as §5

In another test the test system is VERPE. Put plainly: Postemergence herbicidal activity in cereal crops, greenhouse (Example V). The class given is in vivo, Veronica persica Poir. To be noted: Imazamethabenz-methyl 200 gai/ha. As to the method:
(§8) Seeds of the desired test plant species were planted in Sun Gro MetroMix® 306 planting mixture, which typically has a pH of 6.0 to 6.8 and an organic matter content of about 30 percent, in plastic pots with a surface area of 103.2 square centimeters (cm^2). When required to ensure good germination and healthy plants, a fungicide treatment and/or other chemical or physical treatment was applied. The plants were grown for 7-36 days in a greenhouse with an approximate 14 hour photoperiod which was maintained at about 18° C. during the day and about 17° C. during the night. Nutrients and water were added on a regular basis and supplemental lighting was provided with overhead metal halide 1000-Watt lamps as necessary. The plants were employed for testing when they reached the second or third true leaf stage.
(§9) Treatments consisted of the benzyl ester of 4-amino-3-chloro-5-fluoro-6-(4-chloro-2-fluoro-3-methoxy-phenyl)pyridine-2-carboxylic acid (Compound A), formulated as an SC, a second cereal herbicide alone and then both in combination.
(§10) Other herbicidal components were applied on an acid equivalent basis and include acetolactate synthase (ALS)-inhibiting herbicides (imidazolinone chemical class) imazamethabenz-methyl formulated as Assert®. Spray solutions of the second cereal herbicide and experimental compound mixtures were prepared by adding the stock solutions to the appropriate amount of dilution solution to form 12 mL spray solution with active ingredients in two- and three-way combinations. […]
(§11) The treated plants and control plants were placed in a greenhouse as described above and watered by sub-irrigation to prevent wash-off of the test compounds. After 20-22 days, the condition of the test plants as compared with that of the control plants was determined visually and scored on a scale of 0 to 100 percent where 0 corresponds to no injury and 100 corresponds to complete kill. […]

Another test concerns CYPIR. Put plainly: Postemergence foliar-applied, direct seeded rice weeds (Example I). It is filed as in vivo, Cyperus iria L.
Source text: as §1, §2, §3, §4, §6, §7, §5

A further test concerns PAPRH. The experiment in a line: Postemergence herbicidal activity in cereal crops, greenhouse (Example V). It is filed as in vivo, Papaver rhoeas L. The note with it: Imazamethabenz-methyl 200 gai/ha. As to the method: as §8, §9, §10, §11
The next test concerns SINAR. The description is as above. The class given is in vivo, Sinapis arvensis L. To be noted: Imazamethabenz-methyl 200 gai/ha. As to the method:
as §8, §9, §10, §11

The test system of a further test is CIRAR. Described as above. The class given is in vivo, Cirsium arvense (L.) Scop. To be noted: Imazamethabenz-methyl 200 gai/ha. The method, then:
as §8, §9, §10, §11

The test system of the next test is CHEAL. Described as above. The note with it: Imazamethabenz-methyl 200 gai/ha. The class given is in vivo, Chenopodium album L. As to the method:
as §8, §9, §10, §11

The subject of another test is SASKR. The description is as above. To be noted: Imazamethabenz-methyl 200 gai/ha. It is filed as in vivo, Salsola iberica L. As to the method: as §8, §9, §10, §11
The next test concerns CYPRO. Put plainly: In-water applied, transplanted paddy rice weeds (Example II). The class given is in vivo, Cyperus rotundus L. To be noted: Imazapyr IPA 70 gae/ha. As to the method: Weed seeds or nutlets of the desired test plant species were planted in puddled soil (mud) prepared by mixing a shredded, non-sterilized mineral soil (50.5 percent silt, 25.5 percent clay, and 24 percent sand, with a pH of about 7.6 and an organic matter content of about 2.9 percent) and water at a 1:1 volumetric ratio. The prepared mud was dispensed in 365 mL aliquots into 16-ounce (oz.) non-perforated plastic pots with a surface area of 86.59 square centimeters (cm^2) leaving a headspace of 3 centimeters (cm) in each pot. Mud was allowed to dry overnight prior to planting or transplanting. Rice seeds were planted in Sun Gro MetroMix® 306 planting mixture, which typically has a pH of about 6.0 to about 6.8 and an organic matter content of about 30 percent, in plastic plug trays. Seedlings at the second or third leaf stage of growth were transplanted into 860 mL of mud contained in 32-oz. non-perforated plastic pots with a surface area of 86.59 cm^2 4 days prior to herbicide application. The paddy was created by filling the headspace of the pots with 2.5 to 3 cm of water. When required to ensure good germination and healthy plants, a fungicide treatment and/or other chemical or physical treatment was applied. The plants were grown for 4-22 days in a greenhouse with an approximate 14 h photoperiod which was maintained at about 29° C. during the day and about 26° C. during the night. Nutrients were added as Osmocote® (19:6:12, N:P:K+minor nutrients) at 2 g per 16-oz. pot and 4 g per 32-oz. pot. […]
(§12) Treatment requirements for each compound or herbicidal component were calculated based upon the rates being tested, the concentration of active ingredient or acid equivalent in the formulation, an application volume of 2 mL per component per pot, and an application area of 86.59 cm^2 per pot.
For formulated compounds, a measured amount was placed in an individual 100 or 200 mL glass vial and was dissolved in a volume of 1.25% (v/v) Agri-Dex® crop oil concentrate to obtain application solutions. […]

The next test deals with ECHOR. The description is as above. It is filed as in vivo, Echinochloa oryzoides (Ard.) Fritsch. The method, then:
Weed seeds or nutlets of the desired test plant species were planted in puddled soil (mud) prepared by mixing a shredded, non-sterilized mineral soil (50.5 percent silt, 25.5 percent clay, and 24 percent sand, with a pH of about 7.6 and an organic matter content of about 2.9 percent) and water at a 1:1 volumetric ratio. The prepared mud was dispensed in 365 mL aliquots into 16-ounce (oz.) non-perforated plastic pots with a surface area of 86.59 square centimeters (cm^2) leaving a headspace of 3 centimeters (cm) in each pot. Mud was allowed to dry overnight prior to planting or transplanting. Rice seeds were planted in Sun Gro MetroMix® 306 planting mixture, which typically has a pH of about 6.0 to about 6.8 and an organic matter content of about 30 percent, in plastic plug trays. Seedlings at the second or third leaf stage of growth were transplanted into 860 mL of mud contained in 32-oz. non-perforated plastic pots with a surface area of 86.59 cm^2 4 days prior to herbicide application. The paddy was created by filling the headspace of the pots with 2.5 to 3 cm of water. When required to ensure good germination and healthy plants, a fungicide treatment and/or other chemical or physical treatment was applied. The plants were grown for 4-22 days in a greenhouse with an approximate 14 h photoperiod which was maintained at about 29° C. during the day and about 26° C. during the night. Nutrients were added as Osmocote® (19:6:12, N:P:K+minor nutrients) at 2 g per 16-oz. pot and 4 g per 32-oz. pot. Water was added on a regular basis to maintain the paddy flood, and supplemental lighting was provided with overhead metal halide 1000-Watt lamps as necessary. The plants were employed for testing when they reached the first through fourth true leaf stage.
Treatments consisted of the acid or esters of 4-amino-3-chloro-5-fluoro-6-(4-chloro-2-fluoro-3-methoxy-phenyl)pyridine-2-carboxylic acid (compound A) each formulated as an SC and various herbicidal components alone and in combination. Forms of compound A were applied on an acid equivalent basis.
Other herbicidal components were applied on an acid equivalent basis and included the acetolactate synthase (ALS)-inhibiting imidazolinone herbicides imazethapyr ammonium salt formulated as Newpath®, imazamox ammonium salt formulated as Beyond®, imazapic ammonium salt formulated as Plateau®, imazapyr isopropylamine salt formulated as Arsenal®, imazamethabenz-methyl (technical material), and imazaquin isopropylamine salt formulated as Scepter®.
as §12
For formulated compounds, a measured amount was placed in an individual 100 or 200 mL glass vial and was dissolved in a volume of 1.25% (v/v) Agri-Dex® crop oil concentrate to obtain application solutions.
For technical grade compounds, a weighed amount was placed in an individual 100 to 200 mL glass vial and was dissolved in a volume of acetone to obtain concentrated stock solutions. […] The concentrated stock solutions obtained were diluted with an equivalent volume of an aqueous mixture containing 2.5% (v/v) crop oil concentrate so that the final application solutions contained 1.25% (v/v) crop oil concentrate.
Applications were made by injecting with a pipetter appropriate amounts of the application solutions, individually and sequentially, into the aqueous layer of the paddy. Control plants were treated in the same manner with the solvent blank. Applications were made so that all treated plant material received the same concentrations of acetone and crop oil concentrate.
The treated plants and control plants were placed in a greenhouse as described above and water was added as needed to maintain a paddy flood. […]

For the compound `CCCCOC(=O)c1nc(-c2ccc(Cl)c(OC)c2F)c(F)c(N)c1Cl` [Compound A n-Butyl Ester], the “Visual Weed Control (%) - 20 DAA DIGSA Obs” value in the test on DIGSA came to 15%.

In the case of `CC(C)C1(C)N=C(c2nc3ccccc3cc2C(=O)O)NC1=O` (racemic) [Imazaquin IPA, (±)-2-[4,5-dihydro-4-methyl-4-(1-methylethyl)-5-oxo-1H-imidazol-2-yl]-3-quinolinecarboxylic acid with 2-propanamine, reference compound], the “Visual Weed Control (%) - 21 DAA IPOHE Obs” value was 0% in the test on IPOHE (Imazaquin IPA 9 gae/ha), 10% with IPOHE (Imazaquin IPA 18 gae/ha) and 0% with IPOHE (Imazaquin IPA 36 gae/ha).

“methyl 2-[4,5-dihydro-4-methyl-4-(1-methylethyl)-5-oxo-1H-imidazol-2-yl]-4-methylbenzoic acid or methyl 2-[4,5-dihydro-4-methyl-4-(1-methylethyl)-5-oxo-1H-imidazol-2-yl]-5-methylbenzoic acid or mixtures thereof [Imazamethabenz-methyl, reference compound]”: the “Visual Weed Control (%) - 21 DAA VERPE Obs” value in the test on VERPE came to 0%. Also, the “Visual Weed Control (%) - 22 DAA CYPIR Obs” value in the test with CYPIR (Imazamethabenz-methyl 43.75 gai/ha) stood at 0%; in the test with CYPIR (Imazamethabenz-methyl 87.5 gai/ha) it was 20%; in the test with CYPIR (Imazamethabenz-methyl 175 gai/ha), 25%. The “Visual Weed Control (%) - 21 DAA PAPRH Obs” value in the test on PAPRH is recorded as 0%. The “Visual Weed Control (%) - 21 DAA SINAR Obs” value in the test on SINAR stood at 70%. Further, in the test on CIRAR, the “Visual Weed Control (%) - 21 DAA CIRAR Obs” value is listed as 0%. For the same compound, the “Visual Weed Control (%) - 21 DAA CHEAL Obs” value in the test on CHEAL turned out to be 0%. In addition, in the test on SASKR, the “Visual Weed Control (%) - 21 DAA SASKR Obs” value came to 70%.

In the case of `CC(C)C1(C)N=C(c2ncccc2C(=O)O)NC1=O` (stereo not drawn) [Imazapyr IPA, 2-[4,5-dihydro-4-methyl-4-(1-methylethyl)-5-oxo-1H-imidazol-2-yl]-3-pyridinecarboxylic acid compound with 2-propanamine, reference compound], the “Visual Weed Control (%) - 22 DAA CYPRO Obs” value in the test on CYPRO was determined as 70%. For the same compound, the results for the “Visual Weed Control (%) - 22 DAA ECHOR Obs” value in the test on ECHOR (Imazapyr IPA 70 gae/ha) and with ECHOR (Imazapyr IPA 140 gae/ha) were 50% and 85%, respectively. In addition, the “Visual Weed Control (%) - 21 DAA IPOHE Obs” value is 50% in the test with IPOHE (Imazapyr IPA 4.38 gae/ha) and 40% in the test with IPOHE (Imazapyr IPA 8.75 gae/ha).
